# Columns and labels:
# Cyclooxygenase (CO) = target: T1, Cyclooxygenase (CO) (Homo sapiens, UniProt P23219); experiment: In vitro inhibition of Cyclooxygenase (CO); leukocyte homogenate with arachidonic acid, radioimmunoassay for thromboxane; format: biochemical; conditions: homogenised leukocytes from aspirin-free volunteers, 5 μM arachidonic acid, 37°, 5 minutes; thomboxane B4 (CO product)
# T1 construct: The leukocytes were homogenised and 5 μM arachidonic acid added; endogenous in cells; host or cells: homogenate of leukocytes from blood of normal aspirin-free volunteers
# T1 sequence (P23219 24-599): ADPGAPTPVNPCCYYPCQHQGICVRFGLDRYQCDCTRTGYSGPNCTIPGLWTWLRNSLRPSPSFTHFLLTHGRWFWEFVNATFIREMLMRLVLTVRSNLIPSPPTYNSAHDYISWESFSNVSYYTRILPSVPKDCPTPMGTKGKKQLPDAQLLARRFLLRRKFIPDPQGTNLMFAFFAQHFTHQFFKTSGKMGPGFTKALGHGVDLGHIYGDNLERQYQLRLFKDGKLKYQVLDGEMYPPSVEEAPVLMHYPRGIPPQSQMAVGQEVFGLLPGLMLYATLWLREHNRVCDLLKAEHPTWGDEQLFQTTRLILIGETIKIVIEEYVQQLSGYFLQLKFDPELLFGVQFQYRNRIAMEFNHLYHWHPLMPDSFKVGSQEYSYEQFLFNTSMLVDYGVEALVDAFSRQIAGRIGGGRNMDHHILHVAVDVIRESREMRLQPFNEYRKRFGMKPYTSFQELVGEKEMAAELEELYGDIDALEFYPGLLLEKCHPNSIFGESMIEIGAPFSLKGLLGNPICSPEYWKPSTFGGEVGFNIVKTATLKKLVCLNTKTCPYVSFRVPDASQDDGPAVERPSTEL
# Protocol: (§1) In vitro inhibition of 5-lipoxygenase (LO) and Cyclooxygenase (CO)
# (§2) Blood from normal aspirin-free volunteers was centrifuged to separate leukocytes from red cells and platelets. The leukocytes were homogenised and 5 μM arachidonic acid added, followed by incubation at 37° for 5 minutes. The reaction was stopped by boiling. Radioimmunassay was conducted for leukotriene B4 (an LO product) and thomboxane B4 (a CO product). Results were calculated as IC50 μM activity against each enzyme and as listed below.
# 5-lipoxygenase (LO) = target: T2, 5-lipoxygenase (LO) (Homo sapiens, UniProt P09917); experiment: In vitro inhibition of 5-lipoxygenase (LO); leukocyte homogenate with arachidonic acid, radioimmunoassay for leukotriene B4; format: biochemical; conditions: homogenised leukocytes from aspirin-free volunteers, 5 μM arachidonic acid, 37°, 5 minutes; leukotriene B4 (LO product)
# T2 construct: The leukocytes were homogenised and 5 μM arachidonic acid added; endogenous in cells; host or cells: homogenate of leukocytes from blood of normal aspirin-free volunteers
# T2 sequence (P09917 1-674): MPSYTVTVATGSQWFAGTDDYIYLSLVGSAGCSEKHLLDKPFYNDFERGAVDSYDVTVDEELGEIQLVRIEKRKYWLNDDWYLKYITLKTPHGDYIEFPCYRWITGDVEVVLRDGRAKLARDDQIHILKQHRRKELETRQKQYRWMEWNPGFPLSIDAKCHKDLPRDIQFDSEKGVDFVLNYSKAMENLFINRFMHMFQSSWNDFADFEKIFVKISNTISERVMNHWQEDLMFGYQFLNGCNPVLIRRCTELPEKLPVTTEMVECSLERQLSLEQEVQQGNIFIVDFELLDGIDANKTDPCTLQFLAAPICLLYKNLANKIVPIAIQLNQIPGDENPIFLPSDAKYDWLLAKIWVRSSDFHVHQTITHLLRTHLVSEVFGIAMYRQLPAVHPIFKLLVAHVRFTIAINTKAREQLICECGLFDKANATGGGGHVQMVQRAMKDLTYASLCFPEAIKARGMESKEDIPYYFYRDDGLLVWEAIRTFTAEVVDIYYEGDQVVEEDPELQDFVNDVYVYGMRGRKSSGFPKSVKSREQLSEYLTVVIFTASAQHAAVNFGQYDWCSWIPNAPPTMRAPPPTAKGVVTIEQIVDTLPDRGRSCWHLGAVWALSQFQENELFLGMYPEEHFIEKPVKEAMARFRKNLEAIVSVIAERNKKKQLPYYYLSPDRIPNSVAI
# Protocol: as §1, §2
compound,measurement,setting,value
"CN(O)C(=O)C=Cc1cccc(Oc2ccccc2)c1 [Example 1, 3-Phenoxy-N-methylcinnamohydroxamic Acid]",IC50,Cyclooxygenase (CO),3 µM
same,IC50,5-lipoxygenase (LO),< 0.1 µM

# — patent publication US5036157A, “Aryl derivatives” (Burroughs Wellcome Co., priority 1987, dated 1991)
